Assay results reported in patent publication US7129243B2, “Peptide compounds” (Astellas Pharma Inc., priority 2001, dated 2006).

What follows are molecules tested on production of nitric oxide in murine macrophage cell line RAW264.7 (assay: Assay for inhibitory activity on the production of nitric oxide). Conditions: Mus musculus; test compound 10^−6 M; RAW264.7 cells activated with LPS (1 μg/ml) and INF γ (3 u/ml) for 18–24 hours; NO2^− by Griess reagent.
Type: cell-based
Protocol: The murine macrophage cell line RAW264.7 (American Type Culture Collection, No. TIB71) was used in this study. RAW264.7 cells were grown on […] plastic culture flasks at 37° C., 5% in Dulbecco's modified Eagle's medium (DMEM) supplemented with L-glutamine, penicillin, streptomycin and 10% heat-inactivated fetal bovine serum. They were removed from culture flasks by rubber cell scraper and were centrifuged and resuspended in DEM without phenol red. They were plated in 96-well microtiter plates (10^5 cells per well) and allowed to adhere over 2 hours. The test samples were added and the cells were preincubated for 1 hour. Thereafter the cells were activated with both of lipopolysaccharide (LPS) (1 μg/ml) and interferon γ (INF γ) (3 u/ml) for 18-24 hours. An equal volume of Griess reagent (1% sulfanilamide/0.1% N-naphthylethylenediamine dihydrochloride/2.5% H3PO4) was added and the cells were incubated at room temperature for 10 minutes. The absorbance was read at 570 nm using microplate reader and NO2^- was measured using NaNO2 as a standard.

In order of falling inhibition at 1 µM:
1. O=C(N[C@@H](Cc1ccccn1)C(=O)NCC(=O)N1CCC(Oc2nccs2)CC1)c1cc2cc(Cl)ccc2o1 [Compound (a), 5-Chloro-N-[(1S)-2-oxo-2-({2-oxo-2-[4-(1,3-thiazol-2-yloxy)-1-piperidinyl]ethyl}amino)-1-(2-pyridylmethyl)ethyl]-1-benzofuran-2-carboxamide]  100%
2. CC(C)OC1CCN(C(=O)CNC(=O)[C@H](Cc2ccccn2)NC(=O)/C=C/c2ccc(Cl)cc2)CC1 [Compound (g), (2E)-3-(4-Chlorophenyl)-N-[(1S)-2-{[2-(4-isopropoxy-1-piperidinyl)-2-oxoethyl]amino}-2-oxo-1-(2-pyridylmethyl)ethyl]acrylamide]  100%
3. O=C(N[C@@H](Cc1ccccn1)C(=O)NCC(=O)N1CCC(Oc2ccccn2)CC1)c1cc2cc(Cl)ccc2o1 [Compound (d), 5-Chloro-N-[(1S)-2-oxo-2-({2-oxo-2-[4-(2-pyridyloxy)-1-piperidinyl]ethyl}amino)-1-(2-pyridylmethyl)ethyl]-1-benzofuran-2-carboxamide]  100%
4. COc1cccc(OC2CCN(C(=O)CNC(=O)[C@H](Cc3ccccn3)NC(=O)c3cc4cc(Cl)ccc4o3)CC2)n1 [Compound (c), 5-Chloro-N-[(1S)-2-[(2-{4-[(6-methoxy-2-pyridyl)oxy]-1-piperidinyl}-2-oxoethyl)amino]-2-oxo-1-(2-pyridylmethyl)ethyl]-1-benzofuran-2-carboxamide]  100%
5. O=C(/C=C/c1ccc(Cl)cc1)N[C@@H](Cc1ccccn1)C(=O)NCC(=O)N1CCC(Oc2ccccc2)CC1 [Compound (e), (2E)-3-(4-Chlorophenyl)-N-[(1S)-2-oxo-2-{[2-oxo-2-(4-phenoxy-1-piperidinyl)ethyl]amino}-1-(2-pyridylmethyl)ethyl]-acrylamide]  100%
6. O=C(N[C@@H](Cc1ccccn1)C(=O)NCC(=O)N1CCC(OCC(F)(F)F)CC1)c1cc2cc(Cl)ccc2o1 [Compound (f), 5-Chloro-N-[(1S)-2-oxo-2-({2-oxo-2-[4-(2,2,2-trifluoroethoxy)-1-piperidinyl]ethyl}amino)-1-(2-pyridylmethyl)-ethyl]-1-benzofuran-2-carboxamide]  100%
7. O=C(/C=C/c1ccc(Cl)cc1)N[C@@H](Cc1ccccn1)C(=O)NCC(=O)N1CCC(Oc2cnccn2)CC1 [Compound (b), (2E)-3-(4-Chlorophenyl)-N-[(1S)-2-oxo-2-({2-oxo-2-[4-(2-pyrazinyloxy)-1-piperidinyl]ethyl}amino)-1-(2-pyridylmethyl)ethyl]acrylamide]  97.6%
